For 11 compounds, T/C results are on record in PubChem BioAssay AID256 (DTP/NCI, 2004).

“And” between values parts separate entries of the source, which are not always exact repeats. Equal entries are not always repeated. Inconclusive results and toxic doses are left out.

In this test the test system is CD2F1 mice, L1210 leukemia ip, survival T/C. The experiment in a line: NCI In Vivo Anticancer Drug Screen. Data for tumor model L1210 Leukemia (intraperitoneal) in CD2F1 (CDF1) mice. To be noted: endpoint: mean survival time, higher = longer survival. The method in brief: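 Transplantable tumor in mice; compound-treated vs vehicle-treated groups. Read-out = treated/control ratio of the measured endpoint.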

Where [1] appears, read: dose: 100.0 mg/kg/injection, schedule: Q01DX001 (ip), vehicle: saline with Tween-80.
The mark [2] stands for this setting: dose: 100.0 mg/kg/injection, schedule: Q01DX009 (ip), vehicle: saline with Tween-80.
The mark [3] stands for this setting: dose: 200.0 mg/kg/injection, schedule: Q01DX001 (ip), vehicle: saline with Tween-80.
Setting [4] is: dose: 200.0 mg/kg/injection, schedule: Q01DX009 (ip), vehicle: saline with Tween-80.
Setting [5] is: dose: 400.0 mg/kg/injection, schedule: Q01DX001 (ip), vehicle: saline with Tween-80.
The mark [6] stands for this setting: dose: 400.0 mg/kg/injection, schedule: Q01DX009 (ip), vehicle: saline with Tween-80.

On to `N=c1ccn2c(n1)OC1C(OP(=O)(O)O)C(CO)OC12` (centres undefined), for which the T/C is 101 % of control (dose: 2.9 mg/kg/injection, schedule: Q01DX009 (ip), vehicle: saline); 117 % of control (dose: 4.4 mg/kg/injection, schedule: Q03HX024 (oral), vehicle: water); 119 % of control (dose: 5.8 mg/kg/injection, schedule: Q01DX009 (ip), vehicle: saline); 122 % of control (dose: 8.0 mg/kg/injection, schedule: Q03HX008 (ip), vehicle: saline); 177 % of control (dose: 8.0 mg/kg/injection, schedule: Q03HX024 (ip), vehicle: saline); 163 % of control (dose: 8.7 mg/kg/injection, schedule: Q03HX024 (ip), vehicle: saline). The T/C runs as follows: (dose: 11.6 mg/kg/injection, schedule: Q01DX009 (oral), vehicle: water) 120 % of control; (dose: 16.0 mg/kg/injection, schedule: Q03HX008 (oral), vehicle: saline) 120 % of control; (dose: 16.0 mg/kg/injection, schedule: Q03HX024 (ip), vehicle: saline) 225 % of control; (dose: 17.4 mg/kg/injection, schedule: Q03HX024 (ip), vehicle: saline) 217 % of control; (dose: 17.4 mg/kg/injection, schedule: Q03HX024 (oral), vehicle: water) 163 % of control; (dose: 23.2 mg/kg/injection, schedule: Q01DX009 (ip), vehicle: saline) 157 % of control. Besides, the T/C was 122 % of control (dose: 23.2 mg/kg/injection, schedule: Q01DX009 (oral), vehicle: water); 159 % of control (dose: 32.0 mg/kg/injection, schedule: Q01DX009 (ip), vehicle: saline); 111 % of control (dose: 32.0 mg/kg/injection, schedule: Q01DX009 (oral), vehicle: saline); 283 % of control (dose: 32.0 mg/kg/injection, schedule: Q03HX024 (ip), vehicle: saline); 177 % of control (dose: 32.0 mg/kg/injection, schedule: Q03HX024 (oral), vehicle: saline); 229 % of control (dose: 34.8 mg/kg/injection, schedule: Q03HX024 (ip), vehicle: saline). Further, the T/C is 193 % of control (dose: 34.8 mg/kg/injection, schedule: Q03HX024 (oral), vehicle: water); 170 % of control (dose: 46.4 mg/kg/injection, schedule: Q01DX009 (ip), vehicle: saline); 169 % of control (dose: 64.0 mg/kg/injection, schedule: Q01DX009 (ip), vehicle: saline); 418 % of control (dose: 64.0 mg/kg/injection, schedule: Q03HX024 (ip), vehicle: saline); 231 % of control (dose: 64.0 mg/kg/injection, schedule: Q03HX024 (oral), vehicle: saline); 228 % of control (dose: 69.6 mg/kg/injection, schedule: Q03HX024 (ip), vehicle: saline). Also, the T/C is, setting by setting: (dose: 69.6 mg/kg/injection, schedule: Q03HX024 (oral), vehicle: water) 291 % of control; (dose: 92.8 mg/kg/injection, schedule: Q01DX009 (ip), vehicle: saline) 195 % of control; (dose: 92.8 mg/kg/injection, schedule: Q01DX009 (oral), vehicle: water) 153 % of control; (dose: 128.0 mg/kg/injection, schedule: Q01DX001 (ip), vehicle: saline) 112 % of control; (dose: 128.0 mg/kg/injection, schedule: Q01DX001 (oral), vehicle: saline) 104 % of control; (dose: 128.0 mg/kg/injection, schedule: Q01DX009 (ip), vehicle: saline) 200 % of control. Also, the T/C by setting is: (dose: 128.0 mg/kg/injection, schedule: Q01DX009 (oral), vehicle: saline) 166 % of control; (dose: 128.0 mg/kg/injection, schedule: Q03HX008 (oral), vehicle: saline) 157 % of control; (dose: 128.0 mg/kg/injection, schedule: Q03HX024 (oral), vehicle: saline) 231 % of control; (dose: 128.0 mg/kg/injection, schedule: Q04DX003 (ip), vehicle: saline) 154 % of control; (dose: 128.0 mg/kg/injection, schedule: Q04DX003 (oral), vehicle: saline) 111 % of control; (dose: 139.2 mg/kg/injection, schedule: Q03HX024 (ip), vehicle: saline) 221 % of control. Moreover, the T/C reads like this: (dose: 139.2 mg/kg/injection, schedule: Q03HX024 (oral), vehicle: water) 273 % of control; (dose: 185.6 mg/kg/injection, schedule: Q01DX009 (oral), vehicle: water) 197 % of control; (dose: 256.0 mg/kg/injection, schedule: Q01DX001 (ip), vehicle: saline) 122 % of control; (dose: 256.0 mg/kg/injection, schedule: Q01DX001 (oral), vehicle: saline) 107 % of control; (dose: 256.0 mg/kg/injection, schedule: Q01DX009 (oral), vehicle: saline) 201 % of control; (dose: 256.0 mg/kg/injection, schedule: Q04DX003 (ip), vehicle: saline) 180 % of control. In addition, the T/C reads like this: (dose: 278.4 mg/kg/injection, schedule: Q03HX024 (ip), vehicle: saline) 86 % of control; (dose: 371.2 mg/kg/injection, schedule: Q01DX009 (oral), vehicle: water) 174 % of control; (dose: 512.0 mg/kg/injection, schedule: Q04DX003 (ip), vehicle: saline) 219 % of control; (dose: 512.0 mg/kg/injection, schedule: Q04DX003 (oral), vehicle: saline) 173 % of control; (dose: 1024.0 mg/kg/injection, schedule: Q01DX001 (ip), vehicle: saline) 154 % of control; (dose: 1024.0 mg/kg/injection, schedule: Q04DX003 (ip), vehicle: saline) 359 % of control. Also, the T/C (dose: 1024.0 mg/kg/injection, schedule: Q04DX003 (oral), vehicle: saline) is 220 % of control.

With `CCCCCCCCOc1ccc(Cl)cc1Cl`, the T/C by setting is: (dose: 100.0 mg/kg/injection, schedule: Q04DX002 (ip), vehicle: saline with Tween-80) 96 % of control; (dose: 200.0 mg/kg/injection, schedule: Q04DX002 (ip), vehicle: saline with Tween-80) 104 % of control; (dose: 400.0 mg/kg/injection, schedule: Q04DX002 (ip), vehicle: saline with Tween-80) 104 % of control.

Consider `C[C@]12CC[C@H](OC(=O)Cc3ccc(N(CCCl)CCCl)cc3)CC1=CC[C@@H]1[C@@H]2CC[C@]2(C)C(=O)CC[C@@H]12`, for which the T/C was 92 % of control under setting [1]; 100 % of control under setting [2]; 90 % of control under setting [3]; 107 % of control under setting [4]; 96 % of control under setting [5]; 111 % of control under setting [6].

For the compound `CCCCCCCCCCCCC1C(=O)NC(=O)NC1=O`, the T/C is 100 % of control (dose: 75.0 mg/kg/injection, schedule: Q01DX001 (ip), vehicle: saline); 99 % of control (dose: 150.0 mg/kg/injection, schedule: Q01DX001 (ip), vehicle: saline); 97 % of control (dose: 300.0 mg/kg/injection, schedule: Q01DX001 (ip), vehicle: saline).

With `CCSC1CCS(=O)(=O)C1` (centres undefined), the T/C is 93 % of control (dose: 50.0 mg/kg/injection, schedule: Q01DX009 (ip), vehicle: saline with Tween-80); 93 % of control under setting [2]; 97 % of control under setting [4].

For `O=S(=O)(O)C(O)c1cccnc1` (centres undefined), the T/C under setting [2] was 98 % of control; the T/C (dose: 100.0 mg/kg/injection, schedule: Q04DX003 (ip), vehicle: saline sonified) was 95 % of control; the T/C under setting [4] is 96 % of control; the T/C (dose: 200.0 mg/kg/injection, schedule: Q04DX003 (ip), vehicle: saline sonified) was 105 % of control; the T/C under setting [6] was 95 % of control; the T/C (dose: 400.0 mg/kg/injection, schedule: Q04DX003 (ip), vehicle: saline sonified) was 89 % of control.

Turning to `CCOC(=O)C(Cl)C(=O)OCC`, the T/C is 108 % of control and 109 % of control under setting [1]; 104 % of control and 105 % of control under setting [3]; 120 % of control and 111 % of control under setting [5].

Regarding `CC1(Br)C(C)(Br)C(C)(Br)C(C)(Br)C(C)(Br)C1(C)Br` (centres undefined), the T/C by setting is: under setting [1], 96 % of control; under setting [3], 101 % of control; under setting [5], 101 % of control.

With `C/C(=N/Nc1ccc([N+](=O)[O-])cc1[N+](=O)[O-])c1ccccc1`, the T/C reads like this: under setting [2], 91 % of control; under setting [4], 97 % of control; under setting [6], 100 % of control.

Consider `CC(C)(C)OC(=O)NC(CC(N)=O)C(=O)O` (centres undefined), for which the T/C by setting is: (dose: 100.0 mg/kg/injection, schedule: Q01DX001 (ip), vehicle: saline sonified) 98 % of control; (dose: 200.0 mg/kg/injection, schedule: Q01DX001 (ip), vehicle: saline sonified) 93 % of control; (dose: 400.0 mg/kg/injection, schedule: Q01DX001 (ip), vehicle: saline sonified) 98 % of control.

As for `C1SCc2c1c1c(c3c2CSC3)CSC1`, the T/C under setting [1] was 87 % of control and the T/C under setting [5] is 87 % of control.
